From patent US20240270809A1, “ORAL GLP RECEPTOR AGONISTS” (priority 2020, published 2024)
Positions of bridges follow the written chain, without caps; N, C: chain ends. Non-standard residues stand in square brackets, D forms with d. Residues, ends and D or L forms follow the SMILES beside them. *: point of attachment. Malonyl(2,2-Me2,histaminyl) = CC(C)(C(=O)NCCc1cnc[nH]1)C(=O)*; Ala(1H-tetrazol-5-yl) = N[C@@H](Cc1nnn[nH]1)C(=O)O; αMePhe(2-F) = C[C@](N)(Cc1ccccc1F)C(=O)O; αMeL = CC(C)C[C@](C)(N)C(=O)O; Nle = CCCC[C@H](N)C(=O)O; Aib = CC(C)(N)C(=O)O

Key:
mouse GLP2 receptor = target: T1, mouse GLP2 receptor (Mus musculus, UniProt Q5IXF8); test: cAMP accumulation assay, functional agonism of mouse GLP2 receptor; type: cell-based; conditions: HEK cells transiently transfected with mouse GLP2 receptor, HTRF cAMP; for Emax: HEK293, read-out: Mouse GLP-2R agonist cAMP Emax; for EC50: read-out: Mouse GLP-2R agonist cAMP pEC50 (converted)
T1 construct: expressed in transfected cells; host or cells: HEK cells, transient transfection with GeneJuice
T1 sequence (Q5IXF8 1-512): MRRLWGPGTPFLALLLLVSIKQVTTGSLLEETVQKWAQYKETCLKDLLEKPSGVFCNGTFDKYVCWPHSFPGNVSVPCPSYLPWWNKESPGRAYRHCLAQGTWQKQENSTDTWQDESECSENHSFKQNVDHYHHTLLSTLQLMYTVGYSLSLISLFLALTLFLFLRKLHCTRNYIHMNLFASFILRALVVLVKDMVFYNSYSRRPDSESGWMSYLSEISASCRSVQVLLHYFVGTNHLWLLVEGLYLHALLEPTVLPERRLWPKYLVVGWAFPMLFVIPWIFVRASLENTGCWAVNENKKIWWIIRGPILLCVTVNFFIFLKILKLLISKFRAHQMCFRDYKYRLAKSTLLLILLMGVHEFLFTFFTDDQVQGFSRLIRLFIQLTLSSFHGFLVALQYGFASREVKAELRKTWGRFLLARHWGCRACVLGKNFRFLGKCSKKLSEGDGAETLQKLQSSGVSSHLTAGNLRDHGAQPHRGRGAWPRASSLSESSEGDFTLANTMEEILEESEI
Summary of the method: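 Transiently transfected HEK cells (24 h, frozen, 8000/well) in HBSS with 0.5 mM IBMX exposed to compound concentration series for 45 min at 37 °C. cAMP measured by HTRF after lysis and 1 h at RT; pEC50 from four-parameter concentration-response fit.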

human GLP2 receptor = target: T2, human GLP2 receptor (Homo sapiens, UniProt O95838); test: cAMP accumulation assay, functional agonism of human GLP2 receptor; type: cell-based; conditions: HEK cells infected with human GLP2 receptor BacMam virus, HTRF cAMP; for Emax: HEK293, read-out: Human GLP-2R agonist cAMP Emax; for EC50: read-out: Human GLP-2R agonist cAMP pEC50 (converted)
T2 construct: expressed in transfected cells; host or cells: HEK cells, BacMam virus transduction
T2 sequence (O95838 1-553): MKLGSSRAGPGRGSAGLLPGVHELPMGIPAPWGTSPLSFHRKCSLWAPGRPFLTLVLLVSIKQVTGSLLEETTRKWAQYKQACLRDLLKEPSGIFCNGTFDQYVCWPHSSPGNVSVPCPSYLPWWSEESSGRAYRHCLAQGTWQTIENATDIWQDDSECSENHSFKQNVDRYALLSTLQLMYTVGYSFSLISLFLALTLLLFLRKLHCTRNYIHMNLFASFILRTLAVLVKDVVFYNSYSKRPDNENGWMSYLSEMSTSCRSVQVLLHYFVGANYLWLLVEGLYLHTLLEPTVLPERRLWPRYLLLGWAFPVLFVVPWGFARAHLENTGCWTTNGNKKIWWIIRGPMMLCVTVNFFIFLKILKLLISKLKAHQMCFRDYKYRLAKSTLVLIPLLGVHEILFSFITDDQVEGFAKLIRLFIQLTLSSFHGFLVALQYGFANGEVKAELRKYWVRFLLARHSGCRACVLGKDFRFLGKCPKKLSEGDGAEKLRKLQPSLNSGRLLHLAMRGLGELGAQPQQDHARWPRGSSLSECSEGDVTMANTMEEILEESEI
Summary of the method: (§1)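 Frozen HEK cells, previously BacMam-infected 24 h to express either receptor, are stimulated for 45 min at 37° C in IBMX-containing (0.5 mM) HBSS. The reaction is then terminated with HTRF reagents in lysis buffer.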

human GLP1 receptor = target: T3, human GLP1 receptor (Homo sapiens, UniProt P43220); test: cAMP accumulation assay, functional agonism of human GLP1 receptor; type: cell-based; conditions: HEK cells infected with human GLP1 receptor BacMam virus, HTRF cAMP; for Emax: HEK293, read-out: Human GLP-1R agonist cAMP Emax; for EC50: read-out: Human GLP-1R agonist cAMP pEC50 (converted)
T3 construct: expressed in transfected cells; host or cells: HEK cells, BacMam virus transduction
Summary of the method: as §1

[1] = Stability of peptides in rat intestinal fluid (ratIF); conditions: Sprague Dawley, undiluted rat small intestinal fluid (ratIF)
[2] = Stability of peptides in Fasted-State Simulated Intestinal Fluid (FaSSIF); type: in vitro ADME; conditions: FaSSIF with 10 mg/ml pancreatin; FaSSIF pH 6.5 with 10 mg/ml pancreatin, 37° C., t = 15 mins

T3 sequence (P43220 24-463): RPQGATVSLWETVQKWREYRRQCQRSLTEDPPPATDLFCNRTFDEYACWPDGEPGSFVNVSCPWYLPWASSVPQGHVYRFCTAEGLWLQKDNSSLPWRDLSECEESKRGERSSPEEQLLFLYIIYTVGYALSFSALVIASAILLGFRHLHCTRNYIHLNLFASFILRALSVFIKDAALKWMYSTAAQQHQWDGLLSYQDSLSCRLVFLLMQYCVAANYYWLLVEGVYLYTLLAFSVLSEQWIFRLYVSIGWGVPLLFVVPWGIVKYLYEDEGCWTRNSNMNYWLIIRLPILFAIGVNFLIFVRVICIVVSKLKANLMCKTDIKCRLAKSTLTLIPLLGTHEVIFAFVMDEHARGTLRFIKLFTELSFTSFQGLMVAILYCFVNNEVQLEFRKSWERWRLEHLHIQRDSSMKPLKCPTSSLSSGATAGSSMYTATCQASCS

SMILES | Emax (mouse GLP2 receptor) | EC50 (mouse GLP2 receptor) | Emax (human GLP2 receptor) | EC50 (human GLP2 receptor) | Emax (human GLP1 receptor) | EC50 (human GLP1 receptor) | remaining at 0.5 h [1] | remaining at 0.25 h [1] | remaining at 0.25 h [2]
CCCC[C@H](NC(=O)[C@H](CCC(=O)O)NC(=O)[C@H](CC(=O)O)NC(=O)[C@H](CO)NC(=O)[C@H](Cc1ccccc1)NC(=O)[C@H](CO)NC(=O)CNC(=O)[C@H](CC(=O)O)NC(=O)C(C)(C)NC(=O)[C@@H](N)Cc1c[nH]cn1)C(=O)N[C@H]1CC(=O)NCCCC[C@@H](C(=O)N[C@@H](CC(C)C)C(=O)N[C@@H](CCCCN)C(=O)N[C@@H](C)C(=O)N[C@@H](C)C(=O)N[C@@H](CCCCN)C(=O)N[C@@H](CC(=O)O)C(=O)N[C@@H](Cc2ccccc2)C(=O)N[C@H](C(=O)N[C@@H](CC(N)=O)C(=O)N[C@@H](Cc2c[nH]c3ccccc23)C(=O)N[C@@H](CC(C)C)C(=O)N[C@H](C(=O)N[C@@H](CCC(N)=O)C(=O)N[C@H]2CCCCNC(=O)CC[C@@H](C(N)=O)NC(=O)[C@H]([C@@H](C)O)NC(=O)[C@H]([C@@H](C)CC)NC(=O)[C@H](CCCCN)NC2=O)[C@@H](C)CC)[C@@H](C)CC)NC(=O)[C@H](CC(C)C)NC(=O)[C@H]([C@@H](C)CC)NC(=O)[C@H]([C@@H](C)O)NC1=O [Example 112] (H-H[Aib]DGSFSDE[Nle]DTILKLKAAKDFINWLIQKKITE-NH2; lactam 11-15, 29-33 (inferred); C-terminus assumed) | 99.7% | 6.31 nM | 102% | 0.158 nM | 92.6% | 10 nM | – | 24.5% | 40.7%
CCCC[C@H](NC(=O)[C@H](CCC(=O)O)NC(=O)[C@@H]1CC(=O)NCCCC[C@H](NC(=O)[C@H](CC(=O)O)NC(=O)C(C)(C)NC(=O)[C@@H](N)Cc2c[nH]cn2)C(=O)N[C@@H](CO)C(=O)N[C@@](C)(Cc2ccccc2F)C(=O)N[C@@H](CO)C(=O)N1)C(=O)N[C@H](Cc1ccccc1)C(=O)N[C@H](C(=O)N[C@@](C)(CC(C)C)C(=O)N[C@@H](CC(C)C)C(=O)N[C@@H](CC(=O)O)C(=O)N[C@H]1CCC(=O)NCCCC[C@@H](C(=O)N[C@@H](CC(=O)O)C(=O)N[C@@H](Cc2ccccc2)C(=O)N[C@H](C(=O)N[C@H]2CCC(=O)NCCCC[C@@H](C(=O)N[C@H](C(=O)N[C@@H](CCCCN)C(N)=O)[C@@H](C)O)NC(=O)[C@H]([C@@H](C)CC)NC(=O)[C@H](CC(C)C)NC(=O)[C@H](Cc3c[nH]c4ccccc34)NC2=O)[C@@H](C)CC)NC(=O)[C@H](C)NC(=O)[C@H](C)NC(=O)[C@H](CCCCN)NC1=O)[C@@H](C)O [Example 31] (H-H[Aib]DKS[αMePhe(2-F)]SDE[Nle][dF]T[αMeL]LDEKAAKDFIEWLIKTK-NH2; lactam 4-8, 16-20, 24-28) | 102% | 0.158 nM | 103% | 0.0398 nM | 98.3% | 0.0158 nM | 24.8% | – | –
CCCC[C@H](NC(=O)[C@H](CCC(=O)O)NC(=O)[C@@H]1CC(=O)NCCCC[C@H](NC(=O)[C@H](Cc2nn[nH]n2)NC(=O)C(C)(C)C(=O)NCCc2c[nH]cn2)C(=O)N[C@@H](CO)C(=O)N[C@@](C)(Cc2ccccc2F)C(=O)N[C@@H](CO)C(=O)N1)C(=O)N[C@H](Cc1ccccc1)C(=O)N[C@H](C(=O)N[C@@](C)(CC(C)C)C(=O)N[C@@H](CC(C)C)C(=O)N[C@@H](CC(=O)O)C(=O)N[C@H]1CCC(=O)NCCCC[C@@H](C(=O)N[C@@H](CC(=O)O)C(=O)N[C@@H](Cc2ccccc2)C(=O)N[C@H](C(=O)N[C@H]2CCC(=O)NCCCC[C@@H](C(=O)N[C@H]3CCC(=O)NCCCC[C@@H](C(N)=O)NC(=O)[C@H]([C@@H](C)O)NC(=O)[C@H]([C@@H](C)CC)NC(=O)[C@H](CCCCN)NC3=O)NC(=O)[C@H]([C@@H](C)CC)NC(=O)[C@H](CC(C)C)NC(=O)[C@H](Cc3c[nH]c4ccccc34)NC2=O)[C@@H](C)CC)NC(=O)[C@H](C)NC(=O)[C@H](C)NC(=O)[C@H](CCCCN)NC1=O)[C@@H](C)O [Example 71] ({Malonyl(2,2-Me2,histaminyl)}-[Ala(1H-tetrazol-5-yl)]KS[αMePhe(2-F)]SDE[Nle][dF]T[αMeL]LDEKAAKDFIEWLIKEKITK-NH2; lactam 2-6, 14-18, 22-26, 27-31 (inferred); C-terminus assumed) | 89.7% | 2 nM | 103% | 0.0251 nM | 98.2% | 0.0251 nM | 73.8% | – | –

The remaining lines, values ahead:

Emax (mouse GLP2 receptor) | EC50 (mouse GLP2 receptor) | Emax (human GLP2 receptor) | EC50 (human GLP2 receptor) | Emax (human GLP1 receptor) | EC50 (human GLP1 receptor) | remaining at 0.5 h [1] | remaining at 0.25 h [1] | remaining at 0.25 h [2] | SMILES
100% | 5.01 nM | 103% | 0.0316 nM | 96.2% | 0.0501 nM | 41.3% | – | – | CCCC[C@H](NC(=O)[C@H](CCC(=O)O)NC(=O)[C@@H]1CC(=O)NCCCC[C@H](NC(=O)[C@H](CC(=O)O)NC(=O)C(C)(C)NC(=O)[C@@H](N)Cc2c[nH]cn2)C(=O)N[C@@H](CO)C(=O)N[C@@H](Cc2ccccc2)C(=O)N[C@@H](CO)C(=O)N1)C(=O)N[C@H](Cc1ccccc1)C(=O)N[C@H](C(=O)N[C@@](C)(CC(C)C)C(=O)N[C@@H](CC(C)C)C(=O)N[C@@H](CC(=O)O)C(=O)N[C@H]1CCC(=O)NCCCC[C@@H](C(=O)N[C@@H](CC(=O)O)C(=O)N[C@@H](Cc2ccccc2)C(=O)N[C@H](C(=O)N[C@H]2CCC(=O)NCCCC[C@@H](C(=O)N[C@H](C(=O)N3CCC[C@H]3C(N)=O)[C@@H](C)O)NC(=O)[C@H]([C@@H](C)CC)NC(=O)[C@H](CC(C)C)NC(=O)[C@H](Cc3c[nH]c4ccccc34)NC2=O)[C@@H](C)CC)NC(=O)[C@H](C)NC(=O)[C@H](C)NC(=O)[C@H](CCCCN)NC1=O)[C@@H](C)O [Example 29] (H-H[Aib]DKSFSDE[Nle][dF]T[αMeL]LDEKAAKDFIEWLIKTP-NH2; lactam 4-8, 16-20, 24-28 (inferred); C-terminus assumed)
– | – | 99.3% | 0.0631 nM | 97.1% | 0.251 nM | 11% | – | – | CCCC[C@H](NC(=O)[C@H](CCC(=O)O)NC(=O)[C@@H]1CC(=O)NCCCC[C@H](NC(=O)[C@H](CCC(N)=O)NC(=O)C(C)(C)NC(=O)[C@@H](N)Cc2c[nH]cn2)C(=O)N[C@@H](CO)C(=O)N[C@@H](Cc2ccccc2)C(=O)N[C@@H](CO)C(=O)N1)C(=O)N[C@H](Cc1ccccc1)C(=O)N[C@H](C(=O)N[C@@](C)(CC(C)C)C(=O)N[C@@H](CC(C)C)C(=O)N[C@@H](CC(=O)O)C(=O)N[C@H]1CCC(=O)NCCCC[C@@H](C(=O)N[C@@H](CC(=O)O)C(=O)N[C@@H](Cc2ccccc2)C(=O)N[C@H](C(=O)N[C@H]2CCC(=O)NCCCC[C@@H](C(=O)N[C@H](C(=O)N[C@@H](CCCCN)C(N)=O)[C@@H](C)O)NC(=O)[C@H]([C@@H](C)CC)NC(=O)[C@H](CC(C)C)NC(=O)[C@H](Cc3c[nH]c4ccccc34)NC2=O)[C@@H](C)CC)NC(=O)[C@H](C)NC(=O)[C@H](C)NC(=O)[C@H](CCCCN)NC1=O)[C@@H](C)O [Example 27] (H-H[Aib]QKSFSDE[Nle][dF]T[αMeL]LDEKAAKDFIEWLIKTK-NH2; lactam 4-8, 16-20, 24-28; N-terminus and C-terminus assumed)
